Experimental data taken from ChEMBL document CHEMBL1201862, “PubChem BioAssay data set” (2004).
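In this assay, cells in 96-well plates receive the compound at five concentrations for 48 hours. Endpoints are linearly interpolated between the surrounding concentrations. GI50 is the concentration that inhibits growth by half.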 The source made the active and inactive calls. No stated cut-off is given here; in the data, active = GI50 up to about 1.1 µM and inactive = higher.

Assays:
Test in all cases: NCI anticancer screen, dose series, 48 h
HCT-116 = test system: HCT-116
OVCAR-8 = test system: OVCAR-8
SNB-19 = test system: SNB-19
COLO 205 = test system: COLO 205
CAKI-1 = test system: CAKI-1
HCC 2998 = test system: HCC 2998
SN12C = test system: SN12C
OVCAR-4 = test system: OVCAR-4
OVCAR-5 = test system: OVCAR-5
U-251 = test system: U-251
A549 = test system: A549
HOP-62 = test system: HOP-62
SF-539 = test system: SF-539
HT-29 = test system: HT-29
NCI-H522 = test system: NCI-H522
SF-295 = test system: SF-295
SK-MEL-5 = test system: SK-MEL-5
RPMI-8226 = test system: RPMI-8226

Measured: GI50

CC1(Br)C(=O)NC(=O)N([C@H]2C[C@H](O)[C@@H](CO)O2)C1N=[N+]=[N-] (stereo not given in full)
inactive: HCT-116 > 100 µM | OVCAR-8 > 100 µM | SNB-19 > 100 µM | COLO 205 > 100 µM | CAKI-1 > 100 µM | HCC 2998 > 100 µM | SN12C > 100 µM | OVCAR-4 > 100 µM | OVCAR-5 > 76.2 µM | U-251 > 100 µM | A549 > 100 µM | HOP-62 > 100 µM | SF-539 > 100 µM | HT-29 > 100 µM | NCI-H522 > 100 µM | SF-295 > 100 µM | SK-MEL-5 > 100 µM | RPMI-8226 > 100 µM

C/C(=N\NC(=O)CC(=O)N(C(=O)c1ccc(Cl)cc1)c1ccc(C)cc1)c1ccccc1O
inactive: HCT-116 62.2 µM | OVCAR-8 18.7 µM | SNB-19 59.4 µM | COLO 205 16.9 µM | CAKI-1 64 µM | SN12C > 100 µM | OVCAR-4 1.67 µM | OVCAR-5 > 100 µM | U-251 19.6 µM | A549 35.6 µM | HOP-62 37 µM | SF-539 43.4 µM | HT-29 48.1 µM | NCI-H522 36.6 µM | SF-295 7.33 µM | SK-MEL-5 > 100 µM | RPMI-8226 > 100 µM

COc1cc(C(C)O)c[n+](CCc2c[nH]c3ccccc23)c1 (stereo not given)
inactive: HCT-116 > 100 µM | OVCAR-8 > 100 µM | SNB-19 > 100 µM | COLO 205 72.8 µM | CAKI-1 > 100 µM | HCC 2998 > 100 µM | SN12C > 100 µM | OVCAR-4 > 100 µM | U-251 > 100 µM | A549 > 100 µM | HOP-62 > 100 µM | SF-539 > 100 µM | HT-29 58.6 µM | NCI-H522 83.9 µM | SF-295 > 100 µM | SK-MEL-5 > 100 µM | RPMI-8226 > 100 µM

NC1=NN(c2ccccc2)C(=O)C1C(=O)C(=O)NC1C2CC3CC(C2)CC1C3 (stereo not given)
inactive: HCT-116 > 100 µM | OVCAR-8 > 100 µM | SNB-19 > 100 µM | COLO 205 > 100 µM | HCC 2998 > 100 µM | SN12C > 100 µM | OVCAR-4 > 100 µM | OVCAR-5 > 100 µM | U-251 > 100 µM | A549 > 100 µM | HOP-62 > 100 µM | SF-539 > 100 µM | HT-29 > 100 µM | SF-295 > 100 µM | SK-MEL-5 > 100 µM

CC(=O)/C(=C\c1ccccc1O)C(=O)Nc1ccccc1C
inactive: HCT-116 24.4 µM | OVCAR-8 31.7 µM | SNB-19 20.7 µM | CAKI-1 16 µM | HCC 2998 15.7 µM | SN12C > 10 µM | OVCAR-4 29.4 µM | OVCAR-5 21.2 µM | U-251 8.85 µM | A549 20.5 µM | HOP-62 20.9 µM | SF-539 18.5 µM | HT-29 16.9 µM | NCI-H522 > 10 µM | SF-295 23.2 µM | SK-MEL-5 13.5 µM | RPMI-8226 15 µM

Cn1c(=O)c(C(=O)NC(=O)OCc2ccccc2)cn(CCSCCOC(=O)NCCCCCCNC(=O)OCCSCCn2cc(C(=O)NC(=O)OCc3ccccc3)c(=O)n(C)c2=O)c1=O
inactive: HCT-116 > 100 µM | OVCAR-8 > 100 µM | SNB-19 41.2 µM | COLO 205 > 100 µM | HCC 2998 > 100 µM | SN12C > 100 µM | OVCAR-4 > 100 µM | OVCAR-5 > 100 µM | U-251 63.4 µM | A549 > 100 µM | HOP-62 36.7 µM | SF-539 32.5 µM | NCI-H522 > 100 µM | SK-MEL-5 > 100 µM | RPMI-8226 > 100 µM

COC1CC(Br)(C#N)C1 (stereo not given)
inactive: HCT-116 > 100 µM | OVCAR-8 > 100 µM | COLO 205 > 100 µM | CAKI-1 > 100 µM | HCC 2998 > 100 µM | OVCAR-4 > 100 µM | OVCAR-5 > 100 µM | U-251 > 100 µM | A549 > 100 µM | HOP-62 > 100 µM | SF-539 > 100 µM | HT-29 > 100 µM | SF-295 > 100 µM | SK-MEL-5 > 100 µM | RPMI-8226 > 100 µM

O=[PH](O)c1cccnc1
inactive: HCT-116 > 100 µM | OVCAR-8 > 100 µM | SNB-19 > 100 µM | COLO 205 > 100 µM | CAKI-1 > 100 µM | HCC 2998 > 100 µM | SN12C > 100 µM | OVCAR-4 > 100 µM | OVCAR-5 > 100 µM | U-251 > 100 µM | A549 > 100 µM | HOP-62 > 100 µM | SF-539 > 100 µM | HT-29 > 100 µM | NCI-H522 > 100 µM | SF-295 > 100 µM | SK-MEL-5 > 100 µM | RPMI-8226 > 100 µM

O=C(NO)c1ccc([N+](=O)[O-])cc1
inactive: OVCAR-8 25.2 µM | SNB-19 46.2 µM | COLO 205 31.1 µM | CAKI-1 61 µM | HCC 2998 37.8 µM | SN12C 94.2 µM | U-251 43 µM | A549 64.4 µM | HOP-62 29.3 µM | SF-539 24.5 µM | HT-29 48 µM | NCI-H522 21 µM | SF-295 42.1 µM | SK-MEL-5 70.3 µM | RPMI-8226 27.2 µM

CN1CC[C@]2(C)c3c(O)cccc3CC3CCCC1C32C (stereo not given in full)
inactive: HCT-116 > 100 µM | OVCAR-8 > 100 µM | SNB-19 > 100 µM | COLO 205 > 100 µM | CAKI-1 > 100 µM | HCC 2998 15.8 µM | SN12C > 100 µM | OVCAR-5 > 100 µM | U-251 > 100 µM | A549 > 100 µM | HOP-62 > 100 µM | SF-539 > 100 µM | HT-29 > 100 µM | NCI-H522 > 100 µM | SF-295 > 100 µM | SK-MEL-5 > 100 µM | RPMI-8226 > 100 µM

Cc1ccc(N2C(=O)C(Cl)=C(Cl)C2=O)cc1
inactive: HCT-116 17 µM | SNB-19 > 100 µM | COLO 205 16.1 µM | CAKI-1 17.1 µM | HCC 2998 34.4 µM | SN12C 18.7 µM | OVCAR-4 19.2 µM | OVCAR-5 18 µM | U-251 38.3 µM | A549 37.6 µM | HOP-62 30.1 µM | SF-539 25.2 µM | HT-29 19.1 µM | NCI-H522 13 µM | SF-295 71.8 µM | SK-MEL-5 40.9 µM | RPMI-8226 18.8 µM

N#Cc1ccc(C2SCc3nc4ccccc4n32)cc1 (stereo not given)
inactive: HCT-116 44.8 µM | OVCAR-8 76.9 µM | SNB-19 81.7 µM | COLO 205 > 100 µM | CAKI-1 > 100 µM | HCC 2998 > 100 µM | SN12C 75 µM | OVCAR-4 83.2 µM | U-251 > 100 µM | A549 81.8 µM | HOP-62 98.6 µM | SF-539 84.7 µM | NCI-H522 12.3 µM | SF-295 74.3 µM | SK-MEL-5 32.7 µM | RPMI-8226 49.8 µM

COc1ccc(/C=C2\C(=O)N(C(=O)c3ccc(NC(C)=O)cc3)N=C2C)cc1
inactive: HCT-116 > 100 µM | OVCAR-8 > 100 µM | SNB-19 > 100 µM | COLO 205 > 100 µM | CAKI-1 > 100 µM | HCC 2998 > 100 µM | SN12C > 100 µM | OVCAR-4 > 100 µM | OVCAR-5 > 100 µM | A549 > 100 µM | HOP-62 > 100 µM | SF-539 > 100 µM | HT-29 > 100 µM | NCI-H522 > 100 µM | SF-295 > 100 µM | SK-MEL-5 > 100 µM | RPMI-8226 > 100 µM

CSc1nc(NC2OC(COC(C)=O)C(OC(C)=O)C(OC(C)=O)C2OC(C)=O)c2c(OC(C)=O)c(C)c(=O)oc2n1 (stereo not given)
inactive: HCT-116 > 100 µM | OVCAR-8 > 100 µM | SNB-19 > 100 µM | COLO 205 > 100 µM | CAKI-1 > 100 µM | HCC 2998 > 100 µM | SN12C > 100 µM | OVCAR-4 > 100 µM | OVCAR-5 > 100 µM | U-251 > 100 µM | A549 > 100 µM | HOP-62 > 100 µM | SF-539 > 100 µM | HT-29 > 100 µM | SF-295 > 100 µM | SK-MEL-5 > 100 µM | RPMI-8226 > 100 µM

CN(C)Cc1[nH]c2ccccc2c1C(=O)c1ccccc1
inactive: HCT-116 > 100 µM | OVCAR-8 > 100 µM | SNB-19 > 100 µM | COLO 205 > 100 µM | CAKI-1 > 100 µM | HCC 2998 99.1 µM | OVCAR-4 > 100 µM | OVCAR-5 > 100 µM | U-251 > 100 µM | A549 > 100 µM | HOP-62 33 µM | SF-539 > 100 µM | HT-29 > 100 µM | NCI-H522 > 100 µM | SF-295 > 100 µM | SK-MEL-5 58.1 µM | RPMI-8226 66.2 µM

CC(=O)SCCC1c2[nH]c3ccccc3c2CCN1O (stereo not given)
inactive: OVCAR-8 > 100 µM | SNB-19 > 100 µM | COLO 205 > 100 µM | CAKI-1 59.7 µM | HCC 2998 85.1 µM | SN12C > 100 µM | OVCAR-4 > 100 µM | OVCAR-5 71.4 µM | U-251 > 100 µM | A549 > 100 µM | HOP-62 > 100 µM | SF-539 > 100 µM | HT-29 > 100 µM | NCI-H522 23.9 µM | SF-295 > 100 µM | SK-MEL-5 83 µM | RPMI-8226 35.2 µM
